N#CN=C(N)N
solubility (mole fraction)
Conditions	283.15 K	288.15 K	293.15 K	298.15 K	303.15 K	308.15 K	313.15 K	318.15 K	323.15 K
in DMF	0.239	0.248	0.258	0.259	0.262	0.265	0.274	0.276	0.284
in water	0.00474	0.00594	0.00693	0.00897	0.0106	0.0134	0.0173	0.021	0.0244

— BigSolDB 2.1
